Laboratory results as given in patent US20260034091A1, “Compositions and Methods for Treating Metabolic Disorders” (The Regents of the University of California, priority 2022, published 2026).

Key:
Format in all cases: in vivo, C57BL/6J male mice
[1] = system: 60% HFD diet-induced obesity in mice; assay: Dose-dependent effect of TOFA in 60% HFD mouse model of diet-induced obesity (DIO); conditions: for body weight: oral
Method: Six-week-old C57BL/6J male mice were fed with a 60 kcal % fat diet (Research Diets A12492i) for ten weeks before introduction of either vehicle (control) or TOFA, at varying doses, for an additional two weeks. TOFA was orally administered in doses of either 12.5, 25, 62.5, or 125 mg/kg, BID. Mice weights and food intake were monitored during the treatment time course. Prior to harvest, mice underwent whole body composition analysis (EchoMRI™ 2012). Upon study termination at 12 weeks, serum and liver samples were collected. Hepatic and serum triglyceride and cholesterol levels were measured by commercially available kits (abcam65336 and abcam65390, respectively). Additional liver samples were fixed in 4% paraformaldehyde and embedded in paraffin blocks for sectioning and subsequently stained with hematoxylin and eosin (H&E).

PPAR signaling pathway = assay: Transcriptional analysis of liver samples from 60% HFD mouse model of diet induced obesity
Method: Six-week old C57BL/6J male mice were fed with a 60 kcal % fat diet (Research Diets A12492i) for seven weeks before introduction of either control or 125 mg/kg, BID, initial loading dose of TOFA daily via controlled oral gavage for one week (FIG. 2A). Mice were then treated with either vehicle (control) or 62.5 mg/kg, BID, maintenance dose of TOFA daily via oral gavage for three additional weeks. Upon study termination at 11 weeks, liver samples were collected. Total RNA was extracted from liver tissues (Qiagen RNeasy kit 74106), cDNA libraries were constructed (Roche KAPA HyperPrep kit), sequenced on the NovaSeq6000 platform (Novogene), and a downstream analysis pipeline was performed. Differentially expressed genes (DEGs) were defined by at least one log2-fold change (2-fold in linear scale) with an FDR cutoff of 0.05. For validation, total RNA was used to prepare CDNA (BioRAD iScript™ Reverse Transcription) according to manufacturer's protocol and qPCR was performed with fast SYBR Green Mix (ThermoFisher A25742) on the QuantStudio6 System (Applied Biosystems).

[2] = system: CDAHFD-induced late stage NAFLD/NASH in mice; assay: Benchmark study against Firsocostat and Fenofibrate in CDAHFD-induced late stage NAFLD/NASH; conditions: QD oral gavage four weeks
Method: Six-week-old C57BL/6J male mice were fed with a L-amino acid diet with 60 kcal % fat with 0.1% methionine and no added choline (CDAHFD; Research Diets A06071302i) for eight weeks. Mice were randomly assigned to treatment groups of either a vehicle (control), 250 mg/kg of TOFA, 5 mg/kg of Firsocostat (Gilead Sciences), 50 mg/kg of Fenofibrate, or a combined dose of 5 mg/kg Firsocostat and 50 mg/kg Fenofibrate. All treatments were delivered QD by oral gavage for an additional four weeks. Mice weights and food intake were monitored during the treatment time course. Upon study termination at 12 weeks, liver and serum samples were collected. Serum liver damage biomarkers, ALT and AST, were measured by commercially available kits (abcam 105134 and abcam 105135, respectively). Hepatic and serum triglyceride levels were measured from a commercially available kit (abcam65336). Total RNA was extracted from liver tissues (Qiagen RNeasy kit 74106), and cDNA was prepared (BioRAD iScript™ Reverse Transcription) according to manufacturer's protocols. Quantitative PCR (qPCR) was performed with fast SYBR Green Mix (ThermoFisher A25742) on the QuantStudio6 System (Applied Biosciences). Protein expression levels of liver samples were measured by western blot using antibodies against VLDLR (AF2258, 1:2000), CPT1A (CST12252, 1:1000) and Histone H3 (CST9715, 1:1000). Membranes were developed using a HRP secondary antibody (1:5000) and visualized using an enhanced chemiluminescent HRP substrate (Thermo34577). Additional liver samples were fixed in 4% paraformaldehyde and embedded in paraffin blocks for sectioning and subsequently stained with hematoxylin and eosin (H&E).

[3] = system: CDAHFD induced late stage NAFLD/NASH in mice; assay: In-depth investigation of rescue effect of TOFA in CDAHFD induced late stage NAFLD/NASH; conditions: four weeks
Method: Six-week-old C57BL/6J male mice were fed with a L-amino acid diet with 60 kcal % fat with 0.1% methionine and no added choline (CDAHFD; Research Diets A06071302i) for eight weeks. Ten subjects were randomly assigned to either a vehicle (control) treatment or a 125 mg/kg. BID, of TOFA treatment delivered by oral gavage for an additional four weeks. Mice weights were monitored during the entire treatment time course. Upon study termination at 12 weeks, serum and liver samples were collected. Serum liver damage biomarkers, ALT and AST, were measured by commercially available kits (abcam 105134 and abcam 105135, respectively). Hepatic and serum triglyceride levels were measured from a commercially available kit (abcam65336). Total RNA was extracted from liver tissues (Qiagen RNeasy kit 74106), and cDNA was prepared (BioRAD iScript™ Reverse Transcription) according to manufacturer's protocols. Quantitative PCR (qPCR) was performed with fast SYBR Green Mix (ThermoFisher A25742) on the QuantStudio6 System (Applied Biosciences).

[4] = 12.5, 25, 62.5, or 125 mg/kg, BID, two weeks
[5] = 125 mg/kg BID 1 week then 62.5 mg/kg BID 3 weeks, oral gavage

## CCCCCCCCCCCCCCOc1ccc(C(=O)O)o1 [TOFA, 5-(Tetradecyloxy)-2-furoic acid]
[1]; [4]
  food intake: remained constant
  hepatic steatosis (H&E liver sections): improvement in hepatic steatosis in a dose-dependent manner
  serum cholesterol levels (HDL and VLDL/LDL fractions): dose-dependent decrease
  serum triglyceride levels: dose-dependent decrease
[1]; all treatment groups
  overall lean mass (EchoMRI): no changes
[1]; highest dose 125 mg/kg, BID, two weeks
  body weight: weight loss
[1]; highest dose treatment group (125 mg/kg, BID)
  fat mass as a percentage of body weight (EchoMRI): decrease in fat mass as a percentage of body weight
[1]; highest dosing treatment regimens
  liver triglyceride levels: striking decreases
[1]; lower doses (12.5, 25, 62.5 mg/kg, BID), two weeks
  body weight: smaller or negligible changes in body weight
PPAR signaling pathway; [5]
  genes in the PPAR signaling pathway (BioPlanet 2019 database): upregulated various genes under PPAR transcriptional control
  highest upregulated genes (RNAseq of liver): canonical PPAR-alpha target genes
  transcriptional regulatory relationship analysis of upregulated genes (TRRUST Transcription Factors 2019): PPARA is one of the major acting factors in transcriptional regulation
PPAR signaling pathway; liver mRNA relative to r18s mRNA
  downstream PPAR target genes by RT-qPCR (fatty acid beta-oxidation, acyl-CoA processing, lipoprotein uptake and metabolism): upregulated
[2]
  food intake: not attributed to changes in food intake
[2]; TOFA 250 mg/kg
  liver damage: largely decreased liver damage relative to vehicle control treatment at comparable, or stronger, degrees than Firsocostat, Fenofibrate, or the combination of the two agents
  liver triglyceride levels: strong decrease in liver triglyceride levels relative to Firsocostat treatments and vehicle control treatment
[2]; TOFA 250 mg/kg, Firsocostat 5 mg/kg, Fenofibrate 50 mg/kg
  body weight: significant weight loss
[2]; liver mRNA
  PPARA downstream targets Vldlr and Cpt1a (RT-qPCR): unique increase
  genes involved in inflammation (Il1b, Il6) and collagen synthesis (Col1a1, Col3a) by RT-qPCR: specific, comparable response
[2]; liver samples
  protein expression levels of VLDLR and CPT1A (western blot): increased protein expression levels of VLDLR and CPT1A to higher degrees than the other treatment regimens
[2]; liver sections
  steatosis (H&E staining): decreased levels of steatosis
[3]; 125 mg/kg BID oral gavage
  hepatic hydrogen peroxide levels: decrease
  liver triglyceride levels: significant decrease
  serum ALT: trending decreases
  serum AST: trending decreases
[3]; 125 mg/kg BID oral gavage, vs vehicle
  body weight: significant decrease
[3]; liver mRNA, 125 mg/kg BID
  expression of genes involved in collagen biosynthesis by qPCR: decreased
  expression of inflammation genes (Il1b, Tnfa) by RT-qPCR: decrease in expression
  genes with PPAR regulatory elements (beta-oxidation, lipogenesis) by RT-qPCR: upregulated
